Data from US10752647B2, “N-phosphonoxymethyl prodrugs of hydroxyalkyl thiadiazole derivatives” (DAIICHI SANKYO COMPANY, LIMITED, priority 2017, dated 2020).
Converted amounts (≈) assume the structure as drawn. Read-outs that look alike come from different tables or passages of the source. Blank lines part the entries; values can stand above or below the compound they belong to.

What was measured:
[1] = Solubility of parent compounds and prodrugs in phosphate buffer; type: physicochemical; conditions: aqueous buffer, thermodynamic from solid; parent compound, phosphate buffer, 25° C., more than 4 weeks, pH 7.0
Description: Parent compounds: About 5 mg of parent compounds (biologically active forms of prodrugs) were added to 950 μL of phosphate buffer, and mixed vigorously for 1 hour at 25° C. Then, these samples were stored at 25° C. for more than 4 weeks and filtered to remove undissolved parent compounds. Next, these solutions were diluted with 50% aqueous acetonitrile solution. The resulting test solutions were assayed by HPLC. Prodrugs: About 30 mg of prodrugs were added to 120 μL of phosphate buffer, and mixed vigorously for 1 hour at 25° C. After shaking, pH of these solutions were adjusted at pH 7.0 by 1 mol/L NaOH solution. Then, the total volume were adjusted to 280 μL with purified water. Next, these solutions were stored at 25° C. for more than 4 weeks and filtered to remove undissolved compounds. These solutions were diluted with 50% aqueous acetonitrile solution. The resulting test solutions were assayed by HPLC.

[2] = Conversion efficiency / PK profile after IV dose in rats (Compounds No. 5 and No. 7); type: in vivo; conditions: Rat, plasma, parent compound IV 1 mg/kg; read-out: Parent compound AUCinf
Description: Determination of conversion efficiency of Compound No. 5 and Compound No. 7 was conducted in rats. Animals were divided in two groups with two animals in each group. One group received an IV dose of prodrug and the other group received an IV dose of parent compound. Serial blood sampling was carried out at 0.08, 0.25, 0.5, 1, 2, 4, 7, and 24 h post dose from both of the animal groups. Blood samples were centrifuged to harvest plasma. Plasma samples of prodrug administered animals were simultaneously analyzed for both analytes (prodrug and parent compound) using LC-MS/MS. AUC of plasma concentrations versus time profiles were calculated in WinNonlin software and percentage conversion efficiency was determined using the formula: Percentage conversion efficiency=(AUCiv of parent compound from prodrug administered samples)/(AUCiv of parent compound from parent compound administered samples)/(molecular weight of parent compound)×(molecular weight of prodrug)×100. PK profile of Compound No. 5 and Compound No. 7 in rats are depicted in Table 7.

[3] = system: Clostridium difficile 2009155, a NAP1/027 strain; assay: Hamster CDI model; type: in vivo; conditions: 0.3 mg/kg/day for 5 days
Description: d) Method for Testing Therapeutic Effect of Compounds in Hamster CDI Model
The in vivo efficacy of Compound No. 1 was evaluated in a hamster CDI model caused by Clostridium difficile 2009155, a NAP1/027 strain. The Syrian hamsters (7-9 weeks old, National Centre for Laboratory Animal Sciences, National Institute Nutrition, Hyderabad, India.) were acclimatized at least 7 days prior the experiment. Hamsters primed with a single subcutaneous injection of clindamycin (30 mg/kg) 1 day prior to infection. Hamsters were infected by oral gavage with 1 mL of spore suspension (2-3×10^5) prepared in PBS. The test compounds were prepared using the 0.25 w/v % Methyl Cellulose Solution for oral administration and 10% HP ß-CD for SC administration and treatment was started 6 h post infection at an interval of 24 h for 5 days. Hamsters were administered a dose of 0.03-0.3 mg/kg/day for 5 days. The death and survival time of the hamsters treated with test compound administered group and non-treated group (vehicle-control) were recorded once daily for 35 days and were compared. A change in the survival time was used as an index of therapeutic effect.

[4] = system: MRSA 02541; assay: Neutropenic Sprague Dawley rat thigh infection model, MRSA 02541; type: in vivo, Staphylococcus aureus; conditions: for log10 kill (number of bacteria in the thigh): 25 mg/kg, IV qid
Description: c) Method for Testing Therapeutic Effect of Compounds Against MRSA 02541 Using Neutropenic Sprague Dawley Rat Thigh Infection Model
Sprague Dawley rats of 4 to 6-week-old were used for this experiments (Vivo Biotech Limited, Hyderabad, India, n=4 rats per group). Rats were rendered neutropenic by intraperitoneal injection of cyclophosphamide. Overnight grown culture of MRSA 02541 in MHB was adjusted to 0.5 Mac Farland. The suspension was then diluted 1:10 in fresh MHB and 200 μl was injected intra-muscularly in the right thigh muscles of the rat. The bacterial inocula were confirmed by quantitative culture analyses and found to be 6×10^6 CFU per rat thigh muscle. Treatment started 2 h post infection. The test compound was administered to the rat four times at an interval of 6 hr. The number of bacteria in the thigh muscle was counted for the non-treated group immediately before initial administration of the test compound (2 h pre-control), for the non-treated group (26 h post-control) and for the test compound-administered group on the next day of administration of the test compound and infection. A change in the number of bacteria in the thigh was used as an index of therapeutic effect.

[5] = system: MRSA 562; assay: Mouse lung infection model by MRSA 562 (neutropenic Swiss mice); type: in vivo, Staphylococcus aureus
Description: a) Method for Testing Therapeutic Effect of Compounds Using Mouse Lung Infection Model by MRSA 562
Mice were rendered neutropenic with two intra-peritoneal injections (IP) of cyclophosphamide on day −4 and day −1 prior to infection at the dose rate of 150 mg and 100 mg per kg body weight. Overnight grown MRSA 562 was diluted 1:10 in fresh Brain Heart Infusion broth and mixed 1:1 with 5% hog mucin. The bacterial suspension (3.16×10^6/mouce/50 μL) was then inoculated to each pre-anaesthetized mice (xylazine 5 mg/kg and ketamine 100 mg/kg mixture) into the nares of Swiss mice (4 to 6-week-old, Vivo Biotech Limited, Hyderabad, India), n=5 mice per group). The test compound was administered to the mice once, twice and four times at an interval of 24, 12 and 6 hr, respectively. The number of bacteria in the lungs was determined in the non-treated group immediately before initial administration of the test compound (pre-control) and in the non-treated group (post-control) and the test compound-administered group on the next day of administration of the test compound and infection. A change in the number of bacteria in the lungs was used as an index of therapeutic effect.

[6] = system: MRSA 02541; assay: Neutropenic mouse thigh infection model, MRSA 02541; type: in vivo, Staphylococcus aureus
Description: (§1) (b) Method for Testing Therapeutic Effect of Compounds Against MRSA 02541 and VRE IV258 21076 Using Neutropenic Mouse Thigh Infection Model
(§2) Swiss Webster mice of 4 to 6-week-old were used for this experiments (Vivo Biotech Limited, Hyderabad, India, n=5 mice per group). Mice were rendered neutropenic as described above. Overnight grown culture of MRSA 02541 on Mueller-Hinton broth (MHB) was adjusted to 0.5 Mac Farland. The suspension was then diluted 1:100 in fresh MHB and 100 μl was injected intra-muscularly in the right thigh muscles of the mice (n=5/group). In case of VRE IV 258-21076 culture was mixed with 10% hog mucin in 1:1 proportion. The bacterial inocula were confirmed by quantitative culture analyses and found to be 3×10^6 CFU for MRSA and 2×10^6 for VRE IV258-21076 per mL. Treatment started 2 h post infection. The test compound was administered to the mice one to eight times at an interval of 3 to 24 hr. The number of bacteria in the thigh muscle was counted for the non-treated group immediately before initial administration of the test compound (pre-control), for the non-treated group (post-control) and for the test compound-administered group on the next day of administration of the test compound and infection. A change in the number of bacteria in the thigh was used as an index of therapeutic effect.

[7] = Conversion efficiency / PK profile after IV dose in rats (Compounds No. 1 and No. 2); type: in vivo; conditions: 15.3 mg/kg; Rat, plasma, prodrug IV 15.300 mg/kg, analyte prodrug; read-out: Compound No. 1 AUCinf
Description: Method of Testing Conversion Efficiency Determination of conversion efficiency of Compound No. 1 and Compound No. 2 was conducted in rodents (mice and rats) and non-rodents (monkeys and dogs). Animals were divided in two groups with two animals in each group. One group received an intravenous (IV) dose of prodrug and the other group received an IV dose of parent compound. The dose of prodrug was taken as molar equivalent dose of parent compound. Serial blood sampling was carried out at 0.083, 0.33, 1, 2, 4, 8 and 24 h post IV dose from both the animal groups. Blood samples were centrifuged to harvest plasma. Plasma samples were stored at −80° C. until analysis. Plasma samples of prodrug administered animals were simultaneously analyzed for both analytes (prodrug and parent compound) using LC-MS/MS. Area under the curve (AUC) of plasma concentrations versus time profiles were calculated in WinNonlin software and percentage conversion efficiency was determined using the formula: Percentage conversion efficiency=(AUCiv of parent compound (from prodrug administered samples)×100/(AUCiv of parent compound (from parent compound administered samples). PK profile of Compounds No. 1 and No. 2 in rats, dogs and monkeys are depicted in Table 5 and 6, respectively (also shown in FIGS. 1 and 2).

[8] = system: VRE IV258 21076; assay: Neutropenic mouse thigh infection model, VRE IV258 21076; type: in vivo, Enterococcus
Description: as §1, §2

[9] = Solubility in Japanese Pharmacopeia First Fluid (JP1) and Second Fluid (JP2); type: physicochemical; conditions: thermodynamic from solid, room temperature
Description: Method of Testing Solubility in Water and Neutral Buffer A 10 mmol/L solution of the test compound was prepared in DMSO and dispensed 100 μL of 10 mmol/L DMSO stock solutions into labeled glass tubes in duplicate, one for Japanese Pharmacopeia First Fluid (JP1) and second for Japanese Pharmacopeia Second Fluid (JP2). After evaporation of DMSO from each tube, 500 μL of JP1 and JP2 fluid were added in each tube, respectively. These tubes were sonicated for 1 minute and placed on shaker for 30 minutes with an interval of 30 seconds at every 5 minute. Tubes were placed in dark at room temperature for 1 hour and solution was filtered through membrane filter. The filtrate was diluted 2-fold and 10-fold. The resulting test solutions was analyzed and quantified against the standards using UPLC (standard preparation-10 mmol/L solution in DMSO is serially diluted with 50% aqueous acetonitrile solution to prepare 2 solutions; 100 μmol/L standard solution and 5 μmol/L standard solutions).

[10] = Solubility of parent compounds and prodrugs in phosphate buffer; type: physicochemical; conditions: aqueous buffer, thermodynamic from solid; prodrug, phosphate buffer adjusted with NaOH, 25° C., more than 4 weeks, pH 7.2
[11] = system: animal infection models; conditions: compound of WO 2009/084614; cited from earlier work

SMILES: CCc1c(Cl)nc(C(=O)N[C@@H]2CCN(c3nnc(C(C)(C)O)s3)C[C@@H]2OC)n1COP(=O)(O)O [Compound No. 1, [4-Chloro-5-ethyl-2-({(3S,4R)-1-[5-(2-hydroxypropan-2-yl)-1,3,4-thiadiazol-2-yl]-3-methoxypiperidin-4-yl}carbamoyl)-1H-imidazol-1-yl]methyl dihydrogen phosphate]
Survival on day 35 [3]: 100%
log10 kill (number of bacteria in the thigh) ([4]; compared to 2 hours pre-control): 1 log10
log10 kill (number of bacteria in the thigh) ([4]; compared to 26 hours post control): 2.99 log10
Therapeutic effect (change in the number of bacteria in the thigh) ([4]; neutropenic rat thigh, MRSA 02541): exhibited the therapeutic effect
log10 kill (number of bacteria in the lungs) ([5]; 6.25 mg/kg/dose, SC q6h, compared to 1 hour pre-control): 1.33 log10
log10 kill (number of bacteria in the lungs) ([5]; 6.25 mg/kg/dose, SC q6h, compared to 25 hour post control): 2.52 log10
log10 kill (number of bacteria in the lungs) ([5]; 12.5 mg/kg/dose, SC, q6h, compared to 1 hour pre-control): 1.76 log10
log10 kill (number of bacteria in the lungs) ([5]; 12.5 mg/kg/dose, SC, q6h, compared to 25 hour post control): 2.95 log10
Therapeutic effect (change in the number of bacteria in the lungs) ([5]; mouse lung infection, MRSA 562): exhibited the therapeutic effect
Cidal potential (number of bacteria in the thigh) ([6]; 200 mg/kg/dose q24h, 100 mg/kg/dose q24h, and 50 mg/kg/dose q24h and their fractions irrespective of dosing schedule): cidal potential
Therapeutic effect (change in the number of bacteria in the thigh) ([6]; neutropenic mouse thigh, MRSA 02541): exhibited the therapeutic effect
AUC(0-inf) [7]: 270 ng·h/mL
Cidal potential (number of bacteria in the thigh) ([8]; fractionated doses 50 mg/kg/dose q12h, 25 mg/kg/dose q6h, 12.5 mg/kg/dose q3h): cidal potential
Therapeutic effect (change in the number of bacteria in the thigh) ([8]; neutropenic mouse thigh, VRE IV258 21076): exhibited the therapeutic effect
solubility at 30 min ([9]; pH 1.2, simulated gastric fluid, Japanese Pharmacopeia First Fluid (JP1), read-out: Solubility JP1): > 1280 µg/mL
solubility at 30 min ([9]; pH 6.8, aqueous buffer, Japanese Pharmacopeia Second Fluid (JP2), read-out: Solubility JP2): > 1320 µg/mL

SMILES: CCO[C@H]1CN(c2nncs2)CC[C@H]1NC(=O)c1nc(Cl)c(CC)[nH]1 [Compound No. 150]
Efficacy in animal infection models [11]: not being efficacious

The remaining lines, values ahead:

solubility [1]: 2440 µg/mL (≈ 5.67 mM)
AUC(0-inf) [2]: 990 ng·h/mL
SMILES: CCc1[nH]c(C(=O)N[C@@H]2CCN(c3nnc([C@H](O)CO)s3)C[C@@H]2OC)nc1Cl [Compound C, 4-chloro-N-[(3S,4R)-1-{5-[(1R)-1,2-dihydroxyethyl]-1,3,4-thiadiazol-2-yl}-3-methoxypiperidin-4-yl]-5-ethyl-1H-imidazole-2-carboxamide]

solubility [1]: 752 µg/mL (≈ 1.81 mM)
AUC(0-inf) [2]: 3110 ng·h/mL
SMILES: CCc1[nH]c(C(=O)N[C@@H]2CCN(c3nnc(C(C)O)s3)C[C@@H]2OC)nc1Cl (stereo partly drawn) [Compound D, 4-chloro-5-ethyl-N-{(3S,4R)-1-[5-(1-hydroxyethyl)-1,3,4-thiadiazol-2-yl]-3-methoxypiperidin-4-yl}-1H-imidazole-2-carboxamide]

solubility [10]: 102000 µg/mL
SMILES: CCc1c(Cl)nc(C(=O)N[C@@H]2CCN(c3nnc([C@@H](O)CO)s3)C[C@@H]2OC)n1COP(=O)(O)O [Compound No. 9, [4-Chloro-2-({(3S,4R)-1-[5-(1,2-dihydroxyethyl)-1,3,4-thiadiazol-2-yl]-3-methoxypiperidin-4-yl}carbamoyl)-5-ethyl-1H-imidazol-1-yl]methyl dihydrogen phosphate]
